The record followed here is article PMC10791668, “Development of chia gum/alginate-polymer support for horseradish peroxidase immobilization and its application in phenolic removal” (Scientific Reports, 2024).

For the assay, the system named is T1, Horseradish peroxidase (HRP); soluble-HRP.
T1 construct: gene PRXC1A; class III plant peroxidase
Nature of the assay: peroxidase assay, absorbance at […] nm, Lineweaver-Burk plot. The class given is biochemical, Armoracia rusticana. The settings on record: free soluble enzyme; co-substrate H2O2 (8 mM in the standard assay); 20 mM sodium acetate pH 5.5; temperature not stated.

The structures appear in SMILES notation.

On to `COc1ccccc1O` [guaiacol], for which the Km (in general, the substrate concentration at which the rate is half of its maximum) was determined as 35.7 mM.
